From ChEMBL document CHEMBL1152560, “Substituted 2-arylbenzothiazoles as kinase inhibitors: hit-to-lead optimization” (Bioorg Med Chem, 2009) come the findings set out here.

For test [1], the target named is T1, Ephrin type-B receptor 2 (Homo sapiens) (UniProt P29323).
T1 sequence (whole entry): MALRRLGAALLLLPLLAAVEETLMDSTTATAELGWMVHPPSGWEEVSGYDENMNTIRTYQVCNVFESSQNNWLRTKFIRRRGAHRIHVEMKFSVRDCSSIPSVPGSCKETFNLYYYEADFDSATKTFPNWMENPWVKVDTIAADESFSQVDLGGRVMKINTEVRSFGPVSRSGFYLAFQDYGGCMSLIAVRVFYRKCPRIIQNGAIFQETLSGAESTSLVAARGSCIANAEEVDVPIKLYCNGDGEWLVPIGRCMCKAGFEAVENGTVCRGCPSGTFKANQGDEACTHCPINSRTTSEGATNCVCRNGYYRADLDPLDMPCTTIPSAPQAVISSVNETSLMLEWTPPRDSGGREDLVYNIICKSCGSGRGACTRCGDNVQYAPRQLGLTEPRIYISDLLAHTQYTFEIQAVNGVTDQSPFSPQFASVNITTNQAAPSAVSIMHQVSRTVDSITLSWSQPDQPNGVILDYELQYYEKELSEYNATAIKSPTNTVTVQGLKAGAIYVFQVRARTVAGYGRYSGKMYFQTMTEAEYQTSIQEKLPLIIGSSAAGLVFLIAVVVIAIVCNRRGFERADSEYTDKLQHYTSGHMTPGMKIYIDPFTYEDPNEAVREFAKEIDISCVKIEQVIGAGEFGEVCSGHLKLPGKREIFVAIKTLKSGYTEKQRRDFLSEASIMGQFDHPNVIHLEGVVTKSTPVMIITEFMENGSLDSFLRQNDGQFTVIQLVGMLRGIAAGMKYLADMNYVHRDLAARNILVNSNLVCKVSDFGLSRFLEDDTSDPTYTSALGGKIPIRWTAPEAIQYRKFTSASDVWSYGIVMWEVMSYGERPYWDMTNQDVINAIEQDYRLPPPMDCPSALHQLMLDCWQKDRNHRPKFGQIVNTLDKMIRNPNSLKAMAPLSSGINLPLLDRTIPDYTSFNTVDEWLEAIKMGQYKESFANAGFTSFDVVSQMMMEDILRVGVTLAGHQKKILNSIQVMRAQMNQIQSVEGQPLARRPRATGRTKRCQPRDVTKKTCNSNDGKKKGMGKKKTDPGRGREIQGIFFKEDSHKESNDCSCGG
Put plainly: Residual activity of EPHB2 at 0.1 uM by microplate scintillation counting.

Test [2] has as its target Tyrosine-protein kinase CSK (Homo sapiens) (UniProt P41240). Put plainly: Residual activity of CSK at 1 uM by microplate scintillation counting.
Test [3] addresses T2, Ephrin type-A receptor 3 (Homo sapiens) (UniProt P29320).
T2 sequence (whole entry): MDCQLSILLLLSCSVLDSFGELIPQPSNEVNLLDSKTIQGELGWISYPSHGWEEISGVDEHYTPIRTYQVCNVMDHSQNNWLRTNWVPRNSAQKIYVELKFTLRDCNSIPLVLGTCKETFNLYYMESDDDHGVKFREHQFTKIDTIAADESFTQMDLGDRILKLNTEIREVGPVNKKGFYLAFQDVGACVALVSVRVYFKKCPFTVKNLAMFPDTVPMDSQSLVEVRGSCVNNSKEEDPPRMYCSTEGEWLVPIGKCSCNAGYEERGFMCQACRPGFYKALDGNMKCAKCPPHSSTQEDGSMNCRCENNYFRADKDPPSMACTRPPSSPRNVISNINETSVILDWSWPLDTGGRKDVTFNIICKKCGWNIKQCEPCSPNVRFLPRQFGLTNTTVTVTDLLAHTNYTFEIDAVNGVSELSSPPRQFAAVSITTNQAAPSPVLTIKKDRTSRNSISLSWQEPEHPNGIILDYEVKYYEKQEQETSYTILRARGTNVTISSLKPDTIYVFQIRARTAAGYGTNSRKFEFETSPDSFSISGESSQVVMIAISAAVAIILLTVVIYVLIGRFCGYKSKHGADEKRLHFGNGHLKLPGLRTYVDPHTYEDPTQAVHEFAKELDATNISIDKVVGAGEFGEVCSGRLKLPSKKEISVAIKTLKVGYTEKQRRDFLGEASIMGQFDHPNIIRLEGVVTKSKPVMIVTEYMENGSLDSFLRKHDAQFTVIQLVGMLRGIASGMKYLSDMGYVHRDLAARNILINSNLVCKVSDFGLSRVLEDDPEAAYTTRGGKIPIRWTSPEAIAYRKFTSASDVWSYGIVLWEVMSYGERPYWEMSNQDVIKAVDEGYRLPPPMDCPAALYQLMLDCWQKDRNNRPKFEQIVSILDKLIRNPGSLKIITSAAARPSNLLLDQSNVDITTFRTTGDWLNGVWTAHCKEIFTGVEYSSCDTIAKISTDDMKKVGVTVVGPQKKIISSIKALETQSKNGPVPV
Nature of the test: Residual activity of EPHA3 at 10 uM by microplate scintillation counting.

The target in test [4] is NT-3 growth factor receptor (Homo sapiens) (UniProt Q16288). Nature of the test: Residual activity of TRK-C at 1 uM by microplate scintillation counting.
Sequence of NT-3 growth factor receptor (Homo sapiens) (Q16288 32-839 limits assumed): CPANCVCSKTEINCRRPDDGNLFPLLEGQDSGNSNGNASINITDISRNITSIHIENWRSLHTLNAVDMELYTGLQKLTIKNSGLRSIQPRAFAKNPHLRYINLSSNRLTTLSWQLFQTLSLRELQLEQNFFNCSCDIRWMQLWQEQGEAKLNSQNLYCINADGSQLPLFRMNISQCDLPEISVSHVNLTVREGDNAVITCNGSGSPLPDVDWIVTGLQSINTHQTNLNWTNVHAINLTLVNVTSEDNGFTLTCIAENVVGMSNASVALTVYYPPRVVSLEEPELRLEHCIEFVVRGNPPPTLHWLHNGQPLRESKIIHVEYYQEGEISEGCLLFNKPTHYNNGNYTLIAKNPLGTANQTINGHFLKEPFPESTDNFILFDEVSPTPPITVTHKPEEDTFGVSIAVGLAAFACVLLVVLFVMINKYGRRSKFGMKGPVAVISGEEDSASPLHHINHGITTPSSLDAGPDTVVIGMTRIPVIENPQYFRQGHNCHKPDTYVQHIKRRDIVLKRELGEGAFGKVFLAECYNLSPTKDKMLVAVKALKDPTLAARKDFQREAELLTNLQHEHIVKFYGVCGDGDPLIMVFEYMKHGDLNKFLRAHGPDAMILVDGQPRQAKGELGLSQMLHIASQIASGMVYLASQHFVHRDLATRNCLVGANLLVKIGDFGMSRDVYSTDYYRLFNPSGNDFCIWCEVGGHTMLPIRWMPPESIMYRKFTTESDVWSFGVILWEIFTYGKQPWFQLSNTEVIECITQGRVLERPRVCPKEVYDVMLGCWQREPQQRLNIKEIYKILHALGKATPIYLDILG
Test [5] addresses T3, Calcium/calmodulin-dependent protein kinase type IV (Homo sapiens) (UniProt Q16566).
T3 sequence (whole entry): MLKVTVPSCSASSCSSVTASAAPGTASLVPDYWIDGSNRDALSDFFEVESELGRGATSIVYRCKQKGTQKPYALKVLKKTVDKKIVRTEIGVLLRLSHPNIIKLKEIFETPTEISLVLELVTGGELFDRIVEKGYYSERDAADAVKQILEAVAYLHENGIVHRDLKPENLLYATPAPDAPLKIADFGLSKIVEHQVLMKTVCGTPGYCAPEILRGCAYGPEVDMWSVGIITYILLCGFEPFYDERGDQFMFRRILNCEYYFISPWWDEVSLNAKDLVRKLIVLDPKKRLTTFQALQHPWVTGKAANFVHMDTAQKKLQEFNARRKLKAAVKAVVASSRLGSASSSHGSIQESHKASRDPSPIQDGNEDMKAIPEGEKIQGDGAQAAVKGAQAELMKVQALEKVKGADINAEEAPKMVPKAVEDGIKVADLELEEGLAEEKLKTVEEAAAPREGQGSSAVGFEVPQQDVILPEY
Nature of the test: Residual activity of CAMK4 at 1 uM by microplate scintillation counting.

Sequence of Tyrosine-protein kinase CSK (Homo sapiens) (P41240 2-450 limits assumed): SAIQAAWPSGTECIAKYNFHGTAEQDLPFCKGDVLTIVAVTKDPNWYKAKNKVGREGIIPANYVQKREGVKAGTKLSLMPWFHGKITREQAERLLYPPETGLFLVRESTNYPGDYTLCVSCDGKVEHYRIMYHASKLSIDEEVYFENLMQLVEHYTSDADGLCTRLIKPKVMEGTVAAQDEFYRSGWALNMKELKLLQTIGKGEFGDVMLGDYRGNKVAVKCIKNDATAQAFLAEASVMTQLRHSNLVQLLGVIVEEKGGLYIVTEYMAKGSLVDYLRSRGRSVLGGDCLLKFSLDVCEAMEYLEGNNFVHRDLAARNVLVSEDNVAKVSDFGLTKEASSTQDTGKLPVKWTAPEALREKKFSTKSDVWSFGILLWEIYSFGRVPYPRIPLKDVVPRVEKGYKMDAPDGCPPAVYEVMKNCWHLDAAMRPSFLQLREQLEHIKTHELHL

In the case of `COc1cc2c(Oc3ccc(-c4nc5ccccc5s4)cc3F)ncnc2cc1OCCCN1CCN(C)CC1`, the residual activity in test [1] was 98%; in test [2], 76%; in test [3] it was 143%; in test [4], 104%; in test [5] it was 103%.

On to `COc1cc2c(Oc3ccc(-c4nc5ccccc5s4)cc3)ncnc2cc1OCCCN1CCN(C)CC1`, for which the residual activity in test [1] turned out to be 99%; in test [2] it was 82%; in test [3], 236%; in test [4], 104%; in test [5] it was 100%.

For `COc1cc2c(Oc3ccc(-c4nc5ccccc5s4)cc3)ncnc2cc1OCCCN1CCCC1`, the residual activity in test [1] came out at 97%; in test [2], 97%; in test [3], 182%; in test [4] it was 124%; in test [5], 97%.

For orientation: residual activity means the signal under treatment as a percentage of the control signal.
